Assay results from patent US11542282B2, “Low affinity poly(AD-ribose) polymerase 1 dependent cytotoxic agents” (THE TRUSTEES OF THE UNIVERSITY OF PENNSYLVANIA, priority 2018, dated 2023).

What was measured:
OVCAR8 cells = assay: Cell viability / cytotoxicity assay in OVCAR8 cells (CellTiter Glo); assay type: cell-based; conditions: Homo sapiens, OVCAR-8, Table 4
Method: (§1) Cells were cultured using standard techniques at 37° C. with 5% CO2 and 15% 02. […] Genetically engineered PARP-1 and PARP-2 double knockout mouse embryonic fibroblast (MEF) were used for cell viability studies with wildtype control. All cells were cultured in RPMI 1640 with 10% FBS and 1% penicillin/streptomycin.
(§2) Cell viability assays were carried out using four cell lines including OVCAR8, MEF wt, MEF PARP-1 (−/−) KO, and MEF PARP-2 (−/−) KO as described in Makvandi cited above. Briefly, cells were seeded in black wall clear bottom 96-well plates at concentrations of 1,000 cells/well. After 24 h, cells were then treated with concentrations from 100-0.016 μM. Cells were incubated with compounds for 4-7 days and then assayed for cell viability using the luminescent based assay, CellTiter Glo (Promega, Waltham Mass.). Plates were read on an Enspire multimode plate reader (Perkin Elmer). Data was normalized to percent survival at each concentration evaluated by diving the luminescent signal in treated wells vs. the average of vehicle controls. Experiments were repeated three times and all compounds were assayed during each experiment.
Cytotoxicity was then examined in OVCAR8 cells at 1, 10 and 100 μm concentrations as described above. See, FIGS. 1A-1C.
EC50 values of compounds 18-103 were obtained using OVCAR8 cells. See, Table 4.

PARP-1 = PARP-1 (Homo sapiens, UniProt P09874); assay: PARP-1 radioligand binding in live OVCAR8 cells ([125I]KX1 competition); conditions: for IC50: radioligand binding in OVCAR8 cells
Sequence of PARP-1 (P09874 whole entry): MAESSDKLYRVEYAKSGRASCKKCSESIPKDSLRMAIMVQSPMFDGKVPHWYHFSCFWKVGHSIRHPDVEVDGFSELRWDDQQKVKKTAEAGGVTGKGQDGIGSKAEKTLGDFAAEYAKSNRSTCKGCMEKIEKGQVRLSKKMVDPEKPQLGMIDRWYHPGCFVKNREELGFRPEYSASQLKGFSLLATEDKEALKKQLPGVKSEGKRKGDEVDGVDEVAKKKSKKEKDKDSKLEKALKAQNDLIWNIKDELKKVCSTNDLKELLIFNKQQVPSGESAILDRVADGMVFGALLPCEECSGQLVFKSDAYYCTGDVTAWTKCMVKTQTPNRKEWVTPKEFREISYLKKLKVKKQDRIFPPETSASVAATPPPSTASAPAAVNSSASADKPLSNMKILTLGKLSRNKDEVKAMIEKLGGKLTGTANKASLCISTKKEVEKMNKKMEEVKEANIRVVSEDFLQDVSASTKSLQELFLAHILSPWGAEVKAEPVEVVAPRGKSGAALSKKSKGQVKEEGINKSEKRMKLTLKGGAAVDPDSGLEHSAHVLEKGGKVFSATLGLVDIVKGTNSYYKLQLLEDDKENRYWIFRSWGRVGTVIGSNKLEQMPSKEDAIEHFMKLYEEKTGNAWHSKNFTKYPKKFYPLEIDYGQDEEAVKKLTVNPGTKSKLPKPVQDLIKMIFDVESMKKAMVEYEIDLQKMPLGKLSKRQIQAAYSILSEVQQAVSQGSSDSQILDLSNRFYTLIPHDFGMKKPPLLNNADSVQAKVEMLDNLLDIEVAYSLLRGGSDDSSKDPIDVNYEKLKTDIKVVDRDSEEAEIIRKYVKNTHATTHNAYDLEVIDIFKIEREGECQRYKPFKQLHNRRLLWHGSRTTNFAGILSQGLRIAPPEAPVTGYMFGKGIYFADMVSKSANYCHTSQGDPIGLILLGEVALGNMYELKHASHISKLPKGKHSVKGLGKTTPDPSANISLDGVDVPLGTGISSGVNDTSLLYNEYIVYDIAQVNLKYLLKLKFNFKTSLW
Method: as §1
The affinity of each compound for the PARP-1 enzyme was evaluated using a radioligand binding method described in Makvandi, A radiotracer strategy to quantify PARP-1 expression in vivo provides a biomarker that can enable patient selection for PARP inhibitor therapy. Cancer Research 2016. Briefly, OVCAR8 ovarian cancer cells were seeded in 96-well Stripwell plates at a density of 40,000 cells/well 24 hrs prior to the study. On the day of study, compounds were diluted in RPMI to concentrations of 100 μM-0.064 nM. […] Reactions were allowed to equilibrate for 1 hr and were then washed with 200 μL of PBS. Wells were separated and counted on an automatic Wizard gamma counter (Perkin Elmer, Waltham Mass.). […] Experiments were repeated three times with adjusting dose concentrations to increase accuracy of IC50 values.
Compounds 10-17 were evaluated for PARP-1 inhibition using a radioligand binding assay protocol with BRCA1 methylated ovarian cancer cells (OVCAR8) as described above. See, Table 3. […] Compared to 1a, oxaazaspiro analogue 1b performed slightly better with scaffold 10b displaying a PARP-1 binding value of 24.9 nM.

[1] = tested on: MEF PARP-1 (-/-) KO cells; assay: Cell viability assay in MEF PARP-1 KO-/- cells; assay type: cell-based; conditions: Mus musculus, NA = Not applicable, no cell death observed
Method: (§3) Genetically engineered PARP-1 and PARP-2 double knockout mouse embryonic fibroblast (MEF) were used for cell viability studies with wildtype control.
as §2, with “After 24 h, cells were then treated with concentrations from 100-0.016 μM. Cells were incubated with compounds for 4-7 days and then assayed for cell viability using the luminescent based assay, CellTiter Glo (Promega, Waltham Mass.).” left out
(§4) This isogenic model was selected due to the highly conserved nature of the PARP catalytic domain, all-owing investigation in enzyme specificity.
Enzyme dependency of selected compounds in MEF PARP-1 KO−/− cells (FIG. 2B) was performed as described above in order to identify if these analogues act through other cellular targets.

MEF WT cells = assay: Cell viability assay in MEF WT cells; assay type: cell-based, mouse; conditions: NA = Not applicable, no cell death observed
Method: as §3
as §2, with “After 24 h, cells were then treated with concentrations from 100-0.016 μM. Cells were incubated with compounds for 4-7 days and then assayed for cell viability using the luminescent based assay, CellTiter Glo (Promega, Waltham Mass.).” left out
as §4

[2] = tested on: MEF PARP-2 (-/-) KO cells; assay: Cell viability assay in MEF PARP-2 KO-/- cells; assay type: cell-based, mouse; conditions: Mus musculus, NA = Not applicable, no cell death observed
Method: as §3
as §2, with “After 24 h, cells were then treated with concentrations from 100-0.016 μM. Cells were incubated with compounds for 4-7 days and then assayed for cell viability using the luminescent based assay, CellTiter Glo (Promega, Waltham Mass.).” left out
as §4
The cell cytotoxicity profile of these selected compounds in MEF PARP-2 KO−/− cell lines was then analyzed as described above.

| SMILES | EC50 (PARP-1) [µM] | IC50 (PARP-1) [µM] | fold lower PARP-1 affinity compared to the methylene congener (PARP-1; 10c vs 10a, 15b vs 15a) [fold] | EC50 (OVCAR8 cells) [µM] | EC50 [1] [µM] | EC50 (MEF WT cells; Mus musculus) [µM] | EC50 [2] [µM] | EC50 (MEF WT cells) [µM] |
| --- | --- | --- | --- | --- | --- | --- | --- | --- |
| O=C(c1ccc(F)cc1)N1CC2(C1)CN(C(=O)c1cc(Cc3n[nH]c(=O)c4ccccc34)ccc1F)C2 [46 (X = F)] | 0.0218 |  |  | 36 |  |  |  |  |
| O=C(c1cc(Cc2n[nH]c(=O)c3ccccc23)ccc1F)N1CC2(CCCCC2)C1 [Compound 12a, 4-(4-Fluoro-3-(2-azaspiro[3.5]nonane-2-carbonyl)benzyl)phthalazin-1(2H)-one] | 0.0654 ± 0.0015 |  |  |  | 48.3 | 25.6 | 39.9 |  |
| CC(C)(C)OC(=O)N1CCC2(CC1)CN(C(=O)c1cc(Cc3n[nH]c(=O)c4ccccc34)ccc1F)C2 [Compound 12b, Tert-butyl 2-(2-fluoro-5-((4-oxo-3,4-dihydrophthalazin-1-yl)methyl)benzoyl)-2,7-diazaspiro[3.5]nonane-7-carboxylate] | 3.12 | 3.12 |  |  | 49.2 | ~23 | 41.5 | 23.4 |
| O=C(c1cc(Cc2n[nH]c(=O)c3ccccc23)ccc1F)N1CCC2(CC1)CCN(C(=O)C1CC1)CC2 [Compound 17d, 4-(3-(9-(Cyclopropanecarbonyl)-3,9-diazaspiro[5.5]undecane-3-carbonyl)-4-fluorobenzyl)phthalazin-1(2H)-one] | 0.0443 | 0.0443 |  |  | 49.7 | 24.8 | 21.6 |  |
| CO[C@H]1C[C@@H](NC(=O)c2cc(Cc3n[nH]c(=O)c4ccccc34)ccc2F)C1 [Compound 19] | 0.0208 ± 0.0011 |  |  | 17.1 ± 1.2 |  |  |  |  |
| CO[C@H]1C[C@H](NC(=O)c2cc(Cc3n[nH]c(=O)c4ccccc34)ccc2F)C1 [Compound 20] |  |  |  | 72.2 |  |  |  |  |
| COC1CCC(NC(=O)c2cc(Cc3n[nH]c(=O)c4ccccc34)ccc2F)C1 (stereo not shown) [Compound 21] | 0.0496 ± 0.0011 |  |  | 17 ± 1.2 |  |  |  |  |
| COC1CCC(NC(=O)c2cc(Cc3n[nH]c(=O)c4ccccc34)ccc2F)CC1 (stereo not shown) [Compound 22] | 0.2263 ± 0.0011 |  |  | 16.2 ± 1.2 |  |  |  |  |
| COC1CN(C(=O)c2cc(Cc3n[nH]c(=O)c4ccccc34)ccc2F)C1 [Compound 23] | 0.00827 ± 0.0011 |  |  | 71.5 ± 1.2 |  |  |  |  |
| COC1CCN(C(=O)c2cc(Cc3n[nH]c(=O)c4ccccc34)ccc2F)C1 (stereo not shown) [Compound 24] | 0.00421 ± 0.0011 |  |  | 37.3 ± 1.2 |  |  |  |  |
| COC1CCCN(C(=O)c2cc(Cc3n[nH]c(=O)c4ccccc34)ccc2F)CC1 (stereo not shown) [Compound 25] | 0.00474 ± 0.0011 |  |  | 20.2 ± 1.3 |  |  |  |  |
| O=C(c1cc(Cc2n[nH]c(=O)c3ccccc23)ccc1F)N1CC(OCCF)C1 [Compound 26, 4-(4-fluoro-3-(3-(2-fluoroethoxy)azetidine-1-carbonyl)benzyl)phthalazin-1(2H)-one] | 0.00754 ± 0.0011 |  |  | 74.1 ± 1.3 |  |  |  |  |
| O=C(c1cc(Cc2n[nH]c(=O)c3ccccc23)ccc1F)N1CC[C@@H](OCCF)C1 [Compound 28, (R)-4-(4-fluoro-3-(3-(2-fluoroethoxy)pyrrolidine-1-carbonyl)benzyl)phthalazin-1(2H)-one] | 0.0101 ± 0.0011 |  |  | 30.9 ± 1.2 |  |  |  |  |
| O=C(c1cc(Cc2n[nH]c(=O)c3ccccc23)ccc1F)N1CC[C@H](OCCF)C1 [Compound 29, (S)-4-(4-fluoro-3-(3-(2-fluoroethoxy)pyrrolidine-1-carbonyl)benzyl)phthalazin-1(2H)-one] | 0.00688 |  |  | 56.6 |  |  |  |  |
| O=C(c1cc(Cc2n[nH]c(=O)c3ccccc23)ccc1F)N1CCC(OCCF)CC1 [Compound 31, 4-(4-fluoro-3-(4-(2-fluoroethoxy)piperidine-1-carbonyl)benzyl)phthalazin-1(2H)-one] | 0.00395 ± 0.0012 |  |  | 17.1 ± 1.2 |  |  |  |  |
| O=C(c1cc(Cc2n[nH]c(=O)c3ccccc23)ccc1F)N1CCCC(OCCF)CC1 (stereo not shown) [Compound 33, 4-(4-fluoro-3-(4-(2-fluoroethoxy)azepane-1-carbonyl)benzyl)phthalazin-1(2H)-one] | 0.00562 ± 0.0011 |  |  | 11.3 ± 1.3 |  |  |  |  |
| O=C(c1cc(Cc2n[nH]c(=O)c3ccccc23)ccc1F)N1CC2(C1)CN(c1ccc(F)cc1)C2 [Compound 40, 4-(4-fluoro-3-(6-(4-fluorophenyl)-2,6-diazaspiro[3.3]heptane-2-carbonyl)benzyl)phthalazin-1(2H)-one] | 0.000376 |  |  | 12 |  |  |  |  |

Now from value to compound, other results behind:

| EC50 (PARP-1) [µM] | IC50 (PARP-1) [µM] | fold lower PARP-1 affinity compared to the methylene congener (PARP-1; 10c vs 10a, 15b vs 15a) [fold] | SMILES | EC50 (OVCAR8 cells) [µM] | EC50 [1] [µM] | EC50 (MEF WT cells; Mus musculus) [µM] | EC50 [2] [µM] | EC50 (MEF WT cells) [µM] |
| --- | --- | --- | --- | --- | --- | --- | --- | --- |
| 4.4 | 4.4 | ~85 | CC(C)(C)OC(=O)N1CCC2(CCN(C(=O)c3cc(Cc4n[nH]c(=O)c5ccccc45)ccc3F)C2)C1 (stereo not shown) [Compound 15b, Tert-butyl 7-(2-fluoro-5-((4-oxo-3,4-dihydrophthalazin-1-yl)methyl)benzoyl)-2,7-diazaspiro[4.4]nonane-2-carboxylate] |  | 46.4 | 17.2 | 23.4 |  |
| 0.1414 ± 0.0013 |  |  | O=C(c1cc(Cc2n[nH]c(=O)c3ccccc23)ccc1F)N1CCC2(CCCCC2)C1 [Compound 16a, 4-(4-Fluoro-3-(2-azaspiro[4.5]decane-2-carbonyl)benzyl)phthalazin-1(2H)-one] |  | 51.6 | 42.7 | 46.8 |  |
| 1.1 |  |  | CC(C)(C)OC(=O)N1CCC2(CC1)CCN(C(=O)c1cc(Cc3n[nH]c(=O)c4ccccc34)ccc1F)C2 [Compound 16b, Tert-butyl 2-(2-fluoro-5-((4-oxo-3,4-dihydrophthalazin-1-yl)methyl)benzoyl)-2,8-diazaspiro[4.5]decane-8-carboxylate] |  | 45.9 | 9.4 | 31.6 |  |
| 0.225 |  |  | O=C(c1cc(Cc2n[nH]c(=O)c3ccccc23)ccc1F)N1CCC2(CCN(C(=O)C3CC3)CC2)C1 [Compound 16d, 4-(3-(8-(Cyclopropanecarbonyl)-2,8-diazaspiro[4.5]decane-2-carbonyl)-4-fluorobenzyl)phthalazin-1(2H)-one] |  |  | 41.6 | 61 |  |
| 0.0571 ± 0.0012 |  |  | O=C(c1cc(Cc2n[nH]c(=O)c3ccccc23)ccc1F)N1CCC2(CCCCC2)CC1 [Compound 17a, 4-(4-Fluoro-3-(3-azaspiro[5.5]undecane-3-carbonyl)benzyl)phthalazin-1(2H)-one] |  |  | 41.3 | 41.3 |  |
| 0.453 | 0.453 |  | CC(C)(C)OC(=O)N1CCC2(CC1)CCN(C(=O)c1cc(Cc3n[nH]c(=O)c4ccccc34)ccc1F)CC2 [Compound 17b, Tert-butyl 9-(2-fluoro-5-((4-oxo-3,4-dihydrophthalazin-1-yl)methyl)benzoyl)-3,9-diazaspiro[5.5]undecane-3-carboxylate] |  | 43.4 | 16.9 | 19.2 |  |
